The values below come from US9034895B2, “Composition and methods for treating glioblastoma” (University of Washington Through its Center for …, priority 2010, dated 2015).

One assay has as its system T98g cells. The assay is described as follows: Cell viability assay (WST-1), toxic potency and efficacy at T98g cells. As to conditions: Homo sapiens, 72 h; for cytotoxicity at 10 µM: read-out: Activity at killing T98g cells percent efficacy at 10 μM; for Emax: read-out: Toxic potency at T98g cells (percent efficacy); for EC50: read-out: Toxic potency at T98g cells potency μM. The format is cell-based. As to the method: (§1) Cells were plated media supplemented with 10% serum in 96-well plates (10^4 cells per wellI; 0.1 ml per well). Once they reached ˜70% confluence, they were rinsed with PBS and kept for an additional 24 hrs in media supplemented with 1% serum, at which time drugs or vehicle (DMSO, 0.1%, prepared in 10 μl serum-free media) were directly added to each well. After 3 days, cell viability was assessed using the Cell Proliferation Reagent WST-1 (Roche, Indianapolis, Ind.). Briefly, WST-1 reagent (10 μl) was added to each well for 3 hrs at 37° C. with 5% CO2 and WST-1 products were read at 450 nm using Packard SpectraCount™.
Because the strongest toxic effect of WIN55212-2 was measured in T98g cells, these cells are used as readout to study the structure activity relationship (SAR) of AAI compounds at inducing cell death through AAI receptors.

The subject of assay [1] is T98g, MDA231 and sknmc cells. Nature of the assay: Cell viability assay, killing of CB1/CB2-lacking cell lines. As to conditions: for potencies and efficacies at killing T98g, MDA231 and sknmc cells: in words. The format is cell-based, human. The protocol: as §1
The expression level of CB1 and CB2 mRNA is determined by qPCR in eight human cell lines and found three, T98g, MDA231 and sknmc cells, that lack CB1 and CB2 mRNA (Table 1).
Based on this evidence, it was determined if WIN55212-2 differentially kills T98g, MDA231 and sknmc cells, which provides an index of AAI receptor functionality in these cells. Also tested is Δ^9-THC (classic cannabinoid) and CP55940 (non-classical cannabinoid).

In assay [2] the test system is hippocampal slices prepared from CB1−/− mice. As to conditions: blocked by capsazepine; cited from earlier work.
The next assay addresses T1, CB1 (Mus musculus, UniProt P47746).
T1 construct: plasmids containing full coding region of mouse CB1 and CB2; expressed in transfected cells
The assay is described as follows: Radioligand competition binding, [3H]-CP55940, CB1-expressing HEK293 membranes. Conditions: FIG. 2 (CB1 not shown). As to the method:
(§2) Stable CB1 and CB2 expressing HEK293 cell lines were generated using plasmids containing full coding region of mouse CB1 and CB2.
(§3) Fragments were amplified from total RNA of cell lines by reverse transcriptase-polymerase chain reaction (RT-PCR). Sequence was confirmed and the fragment was cloned into the EcoRI site of the pIRES2-eGFP-express vector. Cells were grown to approximately 80% confluence in 10 cm cell culture dishes, transfected with the cDNA pIRES-eGFP-vector containing the murine CB1 or CB2 receptor using LipofectAMINE™ 2000 reagent in the serum-free media Opti-MEM 1 according to the manufacturer's description. Cells were subject to FACS sorting 48 h after transfection and single cell sorted based on dsRed expression into 96-well plates. Of the dsRed expressing positive clones, 3 were validated for CB1 and CB2 protein expression by radioligand binding analysis (methods discussed below).
(§4) Cells were grown to 90% confluence, rinsed twice with 1×PBS and stored at −80° C. until further use. To prepare crude cellular membrane fractions, dishes were removed from −80° C. and thawed at room temperature for 5 min. Once thawed, cells were lysed with ice-cold homogenization buffer (50 mM Tris, 1 mM EDTA, 3 mM MgCl2) and gently scraped from the dish. Total cell lysates from 3-5 dishes were collected on ice in 3 ml of ice-cold homogenization buffer. Cells were homogenized at 6,500 rpm (PRO Scientific, Oxford, Conn.) twice for 10 sec and centrifuged at 11,500 rpm for 20 min at 4° C. Supernatants were discarded and cell pellets were resuspended in homogenization buffer and triturated 10 times in ice-cold homogenization buffer. Crude cellular membrane homogenates were stored at −80° C. until further use. On the day of experiments, frozen homogenates were thawed at room temperature, gently triturated 10 times and subsequently dounce homogenized in a 7 ml glass tissue grinder (Wheaton Science Products, Millville, N.J.) by 5 strokes while on ice. […]

The next assay deals with T2, CB2 (Mus musculus, UniProt P47936).
T2 construct: plasmids containing full coding region of mouse CB1 and CB2; expressed in transfected cells
The assay is described as follows: Radioligand competition binding, [3H]-CP55940, CB2-expressing HEK293 membranes. Conditions: FIG. 2. As to the method: as §2, §3, §4

Assay [3] relates to protein expressed by NG108-15 cells. Conditions: cited from earlier work.
Assay [4] deals with homogenates prepared from CB1−/− mice cerebellum. As to conditions: insensitive to SR144528; cited from earlier work.

T1 sequence (P47746 whole entry): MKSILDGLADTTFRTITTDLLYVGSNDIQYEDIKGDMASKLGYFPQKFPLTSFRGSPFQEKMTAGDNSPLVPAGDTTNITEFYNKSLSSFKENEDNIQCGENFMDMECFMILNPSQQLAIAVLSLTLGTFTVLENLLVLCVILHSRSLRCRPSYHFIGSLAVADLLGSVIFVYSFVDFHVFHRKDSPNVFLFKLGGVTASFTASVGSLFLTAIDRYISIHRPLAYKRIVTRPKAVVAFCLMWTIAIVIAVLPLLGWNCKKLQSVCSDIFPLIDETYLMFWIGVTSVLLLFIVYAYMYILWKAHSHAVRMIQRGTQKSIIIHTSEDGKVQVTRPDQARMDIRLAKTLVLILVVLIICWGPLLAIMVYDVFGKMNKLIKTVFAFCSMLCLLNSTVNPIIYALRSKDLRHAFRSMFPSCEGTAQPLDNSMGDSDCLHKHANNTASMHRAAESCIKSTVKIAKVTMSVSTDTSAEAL
T2 sequence (P47936 whole entry): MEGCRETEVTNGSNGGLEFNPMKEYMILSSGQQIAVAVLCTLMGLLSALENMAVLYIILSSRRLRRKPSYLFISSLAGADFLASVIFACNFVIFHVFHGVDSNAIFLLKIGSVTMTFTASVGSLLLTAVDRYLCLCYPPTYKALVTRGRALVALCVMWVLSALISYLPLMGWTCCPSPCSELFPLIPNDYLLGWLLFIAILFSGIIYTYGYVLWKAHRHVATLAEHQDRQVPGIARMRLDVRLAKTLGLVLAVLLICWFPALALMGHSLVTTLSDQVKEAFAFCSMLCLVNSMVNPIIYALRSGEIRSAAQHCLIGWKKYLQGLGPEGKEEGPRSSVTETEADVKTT

Take `O=C1CCCc2c1c1ccccc1n2Cc1ccccc1` [TK7]: the cytotoxicity at 10 µM with T98g cells turned out to be 19%.

For `COCCn1cc(C(=O)N2CCCC(CN(C)C)C2)c2ccccc21` (centres unmarked) [TK9], in the assay on T98g cells, the cytotoxicity at 10 µM was 0%.

In the case of `CCCCCn1cc(C(=O)c2cccc3ccccc23)cc1-c1cc(C)cc(O)c1` [JWH-370], the cytotoxicity at 10 µM in the assay on T98g cells worked out at 11%.

On to `CC(=O)c1c(C)n(CCCOc2ccccc2)c2ccccc12` [TK-14], for which, in the assay on T98g cells, the Emax is 92% and the EC50 came out at 40 µM.

Regarding `Cc1ccc(C(=O)c2c(C)n(CCN3CCOCC3)c3ccccc23)c2ccccc12` [TK-18], in the assay with T98g cells, the Emax stood at 48% and the EC50 was 3 µM.

As to `Cc1c(C(=O)C(F)(F)F)c2ccccc2n1CC(=O)NCc1ccccc1` [TK6], the cytotoxicity at 10 µM with T98g cells came to 8%.

In the case of `Cc1c(C(=O)c2cccc3ccccc23)c2cccc3c2n1[C@@H](CN1CCOCC1)CO3` [WIN55212-2], the EC50 in assay [1] (Homo sapiens, range over the three cell lines (FIG. 1), read-out: potency at killing T98g, MDA231 and sknmc cells) is 1500 to 2900 nM. Besides, in assay [1] (rank order of cell lines), the “gradual toxic efficacy across cell lines” value is listed as “T98g>MDA>sknmc”. For the same molecule, in the assay on T98g cells, the Emax came to 87% and the EC50 was 1.5 µM. The excitatory transmission result in assay [2] was “inhibit”. Also, on CB1, the “competition for [3H]-CP55940 binding at CB1” value is reported as “competes”. Also, the “competition for [3H]-CP55940 binding at CB2” value on CB2 is recorded as “competes”. For the same molecule, the “binding affinity to a protein expressed by NG108-15 cells” value in assay [3] is listed as “nanomolar affinity”. In addition, the “[35S]-GTPγS binding” value in assay [4] is “increase”.

On to `Cc1c(C(=O)c2cccc3ccccc23)c2ccccc2n1C` [JWH-042], for which, in the assay with T98g cells, the Emax worked out at 71% and the EC50 amounted to 3.1 µM.

Consider `Cc1ccc(C(=O)c2c3n(c4ccccc24)CCCC3)c2ccccc12` [CBX-005, (4-methylnaphthalen-1-yl)(6,7,8,9-tetrahydropyrido[1,2-a]indol-10-yl)methanone], for which, in the assay with T98g cells, the Emax was 64% and the EC50 was 1.2 µM.

For `O=C(c1cccc2ccccc12)c1cn(CCN2CCOCC2)c2ccccc12` [JWH-200], in the assay with T98g cells, the Emax came out at 48% and the EC50 was found to be 21 µM.

As to `COc1ccc(C(=O)c2c(C)n(CCN3CCOCC3)c3ccccc23)cc1` [Pravadoline], in the assay on T98g cells, the Emax is 88% and the EC50 was 22 µM.

Consider `COCCn1c(C)c(C(=O)N2CCC3(CC2)NC(=O)N(C)C3=O)c2ccccc21` [TK-8], for which, in the assay with T98g cells, the Emax was 55% and the EC50 was found to be 886 µM.

With `Cc1c(C(=O)Cn2cnc3ccccc3c2=O)c2ccccc2n1C` [TK5], in the assay on T98g cells, the cytotoxicity at 10 µM was found to be 3%.

In the case of `CC(=O)c1c(C)n(CCOc2cccc3ccccc23)c2ccccc12` [TK-15], in the assay with T98g cells, the Emax amounted to 62% and the EC50 was 45 µM.

In the case of `CCCCCCC(C)(C)c1ccc([C@@H]2C[C@H](O)CC[C@H]2CCCO)c(O)c1` [CP55940], the “potencies and efficacies at killing T98g, MDA231 and sknmc cells” value in assay [1] was “inconsistent potencies and efficacies”. Besides, in assay [3], the “competition for WIN-2 binding in NG108-15 cells” value was “did not compete”.

Turning to `CC1=C(CCN2C(=O)COc3ccccc32)c2ccccc2C1C` (centres unmarked) [TK4], the cytotoxicity at 10 µM in the assay with T98g cells is 10%.

For the molecule `Cc1nccn1CC1CCc2c(c3ccccc3n2C)C1=O` (centres unmarked) [TK3], the cytotoxicity at 10 µM in the assay with T98g cells worked out at 11%.

`Cc1c(CNN2CCOCC2)nn(C)c1C` [TK-1]: the cytotoxicity at 10 µM in the assay with T98g cells worked out at 6%.

In the case of `Cc1ccc(C(=O)c2c(C)n(CCN3CCOCC3)c3ncccc23)c2ccccc12` [CBX-003, (2-methyl-1-(2-morpholino ethyl)-1H-pyrrolo[2,3-b]pyridin-3-yl)(4-methylnaphthalen-1-yl)methanone], in the assay on T98g cells, the Emax was found to be 71% and the EC50 was found to be 5 µM.

In the case of `CCn1c(C)c(C(=O)c2cccc3ccccc23)c2ccccc21` [JWH-043], in the assay on T98g cells, the Emax was determined as 84% and the EC50 is 6.9 µM.

As for `CC(=O)c1c(C)n(CCOc2ccccc2)c2ccccc12` [TK-2], in the assay on T98g cells, the Emax is 81% and the EC50 was 3.1 µM.

As to `CCCCCc1cc(O)c2c(c1)OC(C)(C)[C@@H]1CCC(C)=C[C@@H]21` [THC], the “potencies and efficacies at killing T98g, MDA231 and sknmc cells” value in assay [1] was “inconsistent potencies and efficacies”.

As to `Cc1ccc(C(=O)c2c(C)n(CCN3CCOCC3)c3ccc(Cl)cc23)c2ccccc12` [CBX-002, (5-chloro-2-methyl-1-(2-morpholino ethyl)-1H-indol-3-yl)(4-methylnaphthalen-1-yl)methanone], in the assay on T98g cells, the Emax came out at 45% and the EC50 amounted to 30 µM.

As to `Cn1cc(C(=O)N2CCCc3ccccc32)c2ccccc21` [TK10], in the assay with T98g cells, the cytotoxicity at 10 µM is 0%.

Consider `Cc1ccc(C(=O)c2c(C)n(CCN3CCOCC3)c3cc(Cl)cc(Cl)c23)c2ccccc12` [CBX-007, (4,6-dichloro-2-methyl-1-(2-morpholino ethyl)-1H-indol-3-yl)(4-methylnaphthalen-1-yl)methanone], for which, in the assay with T98g cells, the Emax came out at 56% and the EC50 is 0.6 µM.

For `COc1ccc2c(c1)c(C(O)N1CCCC(c3nnc4ccccn34)C1)c(C)n2C` (centres unmarked) [TK12], the cytotoxicity at 10 µM in the assay on T98g cells is 16%.

For the molecule `COc1ccc2c(c1)c(C(=O)N1CCCC(c3nnc4ccccn34)C1)c(C)n2C` (centres unmarked) [TK11], in the assay with T98g cells, the cytotoxicity at 10 µM amounted to 10%.

`CCCn1c(C)c(C(=O)c2cccc3ccccc23)c2ccccc21` [JWH-015, (2-methyl-1-propyl-1H-indol-3-yl)(naphthalen-1-yl)methanone]: in the assay with T98g cells, the Emax is 58% and the EC50 was found to be 1.3 µM.

Turning to `Cc1c(C(=O)c2ccccc2)c2ccccc2n1CC(=O)N1CCOCC1` [TK16], in the assay on T98g cells, the cytotoxicity at 10 µM came to 3%.

Consider `Cc1ccc(C(=O)c2c(C)n(C)c3ccccc23)c2ccccc12` [JWH-450, (1,2-dimethyl-1H-indol-3-yl)(4-methylnaphthalen-1-yl)methanone], for which, in the assay on T98g cells, the Emax was 66% and the EC50 amounted to 2 µM.

Regarding `CCCn1c(C)c(C(=O)c2ccc(C)c3ccccc23)c2ccccc21` [JWH-148], in the assay with T98g cells, the Emax was determined as 48% and the EC50 is 2 µM.

For the molecule `CCCn1cc(C(=O)c2ccc(C)c3ccccc23)c2ccccc21` [JWH-120], the cytotoxicity at 10 µM with T98g cells was 0%.

With `Cc1ccc(C(=O)c2c(C)n(CCN3CCOCC3)c3cc(Cl)ccc23)c2ccccc12` [CBX-004, (6-chloro-2-methyl-1-(2-morpholinoethyl)-1H-indol-3-yl)(4-methylnaphthalen-1-yl)methanone], in the assay on T98g cells, the Emax turned out to be 68% and the EC50 is 2 µM.
